In ChEMBL document CHEMBL5233215, “Recent developments of chalcones as potential antibacterial agents in medicinal chemistry” (Eur J Med Chem, 2020):
Converted amounts (≈) assume the structure as drawn.

What was measured:
Staphylococcus aureus [1] = experiment: Antibacterial activity methicillin-resistant Staphylococcus aureus ATCC 33591 assessed as inhibition of bacterial growth after 24 hrs by microdilution broth method; format: functional
Staphylococcus aureus [2] = experiment: Antibacterial activity methicillin-sensitive Staphylococcus aureus ATCC 25923 assessed as inhibition of bacterial growth after 24 hrs by microdilution broth method; format: functional
Streptococcus pyogenes [3] = experiment: Antibacterial activity Streptococcus pyogenes assessed as inhibition of bacterial growth by […] dye based colorimetric method; format: functional
Staphylococcus aureus [4] = experiment: Antibacterial activity Staphylococcus aureus assessed as inhibition of bacterial growth by […] dye based colorimetric method; format: functional
DNA gyrase = DNA gyrase (Staphylococcus aureus, UniProt P0A0K8+P20831); experiment: Inhibition of Staphylococcus aureus DNA gyrase; format: protein-complex assay
DNA gyrase, sequence (P0A0K8 whole entry): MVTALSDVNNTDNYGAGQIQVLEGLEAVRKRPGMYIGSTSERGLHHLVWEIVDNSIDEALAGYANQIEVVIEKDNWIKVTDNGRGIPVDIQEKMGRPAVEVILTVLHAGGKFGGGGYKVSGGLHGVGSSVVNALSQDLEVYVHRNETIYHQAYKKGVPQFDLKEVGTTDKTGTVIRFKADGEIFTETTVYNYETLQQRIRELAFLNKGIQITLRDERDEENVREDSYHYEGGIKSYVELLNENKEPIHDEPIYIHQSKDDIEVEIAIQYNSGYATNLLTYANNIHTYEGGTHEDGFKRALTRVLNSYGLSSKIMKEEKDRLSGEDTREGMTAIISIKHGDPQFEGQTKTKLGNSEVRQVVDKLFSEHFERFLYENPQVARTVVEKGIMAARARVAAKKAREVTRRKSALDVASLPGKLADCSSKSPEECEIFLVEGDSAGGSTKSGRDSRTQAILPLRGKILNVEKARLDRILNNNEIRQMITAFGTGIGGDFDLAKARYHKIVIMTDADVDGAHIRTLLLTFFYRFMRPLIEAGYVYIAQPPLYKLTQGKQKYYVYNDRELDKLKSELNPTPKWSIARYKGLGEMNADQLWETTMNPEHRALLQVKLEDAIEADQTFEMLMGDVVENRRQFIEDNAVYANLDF
DNA gyrase, sequence (P20831 whole entry): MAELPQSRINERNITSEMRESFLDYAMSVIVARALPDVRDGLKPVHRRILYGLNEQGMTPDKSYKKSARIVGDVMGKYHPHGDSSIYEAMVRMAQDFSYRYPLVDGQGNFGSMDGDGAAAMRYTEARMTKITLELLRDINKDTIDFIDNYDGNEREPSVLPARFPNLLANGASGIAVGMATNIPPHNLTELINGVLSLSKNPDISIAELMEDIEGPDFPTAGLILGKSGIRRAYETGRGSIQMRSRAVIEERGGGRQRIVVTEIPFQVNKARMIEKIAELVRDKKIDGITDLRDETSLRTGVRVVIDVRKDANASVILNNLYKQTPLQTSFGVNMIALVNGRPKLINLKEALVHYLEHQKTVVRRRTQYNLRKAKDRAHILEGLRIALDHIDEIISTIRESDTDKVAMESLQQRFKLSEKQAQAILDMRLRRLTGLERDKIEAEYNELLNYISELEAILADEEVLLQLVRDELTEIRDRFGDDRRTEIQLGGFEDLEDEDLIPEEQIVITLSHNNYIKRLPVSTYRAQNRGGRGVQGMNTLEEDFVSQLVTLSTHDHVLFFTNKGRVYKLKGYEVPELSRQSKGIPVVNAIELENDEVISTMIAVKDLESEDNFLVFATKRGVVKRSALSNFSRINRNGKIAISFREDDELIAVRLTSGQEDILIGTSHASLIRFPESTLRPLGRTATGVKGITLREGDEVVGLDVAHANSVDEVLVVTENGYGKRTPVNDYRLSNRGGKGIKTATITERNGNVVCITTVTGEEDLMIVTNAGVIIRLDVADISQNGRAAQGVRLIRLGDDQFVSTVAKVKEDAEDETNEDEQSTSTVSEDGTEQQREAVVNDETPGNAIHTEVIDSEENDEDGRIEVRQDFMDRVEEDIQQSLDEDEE

Escherichia coli [5] = experiment: Antibacterial activity Escherichia coli assessed as inhibition of bacterial growth by […] dye based colorimetric method; format: functional
Staphylococcus aureus [6] = experiment: Antibacterial activity methicillin-sensitive Staphylococcus aureus ATCC 25923 assessed as inhibition of bacterial growth after 24 hrs by NCCLS protocol based microdilution method; format: functional
Staphylococcus aureus [7] = experiment: Antibacterial activity methicillin-resistant Staphylococcus aureus ATCC 44330 assessed as inhibition of bacterial growth after 24 hrs by NCCLS protocol based microdilution method; format: functional
[8] = system: Mycobacterium tuberculosis; experiment: Antimycobacterial activity against Mycobacterium tuberculosis H37Rv CNCTC My 331/88 assessed as bacterial growth inhibition incubated for 5 days by resazurin dye based assay; format: functional; conditions: H37Rv CNCTC My 331/88, 120 h, time 5 day
Mycobacterium kansasii = experiment: Antimycobacterial activity against Mycobacterium kansasii CNCTC My 235/80 assessed as bacterial growth inhibition incubated for 5 days by resazurin dye based assay; format: functional; conditions: CNCTC My 235/80, 120 h, time 5 day
[9] = system: Mycolicibacterium smegmatis; experiment: Antimycobacterial activity against Mycobacterium smegmatis ATCC 607 assessed as bacterial growth inhibition incubated for 48 hrs by resazurin dye based assay; format: functional
Staphylococcus aureus [10] = experiment: Antimicrobial activity against Staphylococcus aureus assessed as bacterial growth inhibition incubated for 18 hrs by broth micro dilution method; format: functional
Salmonella typhimurium = experiment: Antimicrobial activity against Salmonella typhimurium assessed as bacterial growth inhibition incubated for 18 hrs by broth micro dilution method; format: functional, Salmonella enterica subsp. enterica serovar Typhimurium; conditions: Salmonella enterica
Escherichia coli [11] = experiment: Antimicrobial activity against Escherichia coli assessed as bacterial growth inhibition incubated for 18 hrs by broth micro dilution method; format: functional
Streptococcus pyogenes [12] = experiment: Antimicrobial activity against Streptococcus pyogenes assessed as bacterial growth inhibition incubated for 18 hrs by broth micro dilution method
Staphylococcus aureus [13] = experiment: Antibacterial activity Staphylococcus aureus ATCC 33592 assessed as inhibition of bacterial growth incubated for 16 hrs by CLSI protocol based microdilution method; format: functional
Staphylococcus aureus [14] = experiment: Antibacterial activity Staphylococcus aureus ATCC 29213 assessed as inhibition of bacterial growth incubated for 16 hrs by CLSI protocol based microdilution method; format: functional
Staphylococcus aureus [15] = experiment: Antibacterial activity Staphylococcus aureus ATCC 25923 assessed as inhibition of bacterial growth incubated for 16 hrs by CLSI protocol based microdilution method; format: functional
Staphylococcus aureus [16] = experiment: Antibacterial activity methicillin-resistant Staphylococcus aureus ATCC 700699 assessed as inhibition of bacterial growth incubated for 16 hrs by CLSI protocol based microdilution method; format: functional
Klebsiella pneumoniae [17] = experiment: Antibacterial activity Klebsiella pneumoniae K4 assessed as inhibition of bacterial growth incubated for 24 hrs by microbroth dilution assay; format: functional
DNA = experiment: Binding affinity to DNA (unknown origin) assessed as DNA intercalation by measuring amount of methyl green dye replaced from DNA-methyl green complex after 24 hrs by colourimetric assay; format: nucleic-acid assay
Pseudomonas aeruginosa = experiment: Antibacterial activity Pseudomonas aeruginosa Ps12 assessed as inhibition of bacterial growth incubated for 24 hrs by microbroth dilution assay; format: functional
Staphylococcus aureus [18] = experiment: Antibacterial activity Staphylococcus aureus assessed as inhibition of bacterial growth incubated for 12 to 18 hrs by NCCLS protocol based microdilution method; format: functional; conditions: time 12-18 hrs
Klebsiella pneumoniae [19] = experiment: Antibacterial activity Klebsiella pneumoniae assessed as inhibition of bacterial growth incubated for 12 to 18 hrs by NCCLS protocol based microdilution method; format: functional; conditions: time 12-18 hrs
Bacillus anthracis = experiment: Antibacterial activity Bacillus anthracis Sterne 34F2 assessed as inhibition of bacterial growth by CLSI based microbroth dilution assay; format: functional
Micrococcus luteus = experiment: Antibacterial activity Micrococcus luteus NBRC 333 assessed as inhibition of bacterial growth after 48 hrs by two fold dilution method; format: functional
[20] = system: Staphylococcus epidermidis; experiment: Antibacterial activity Staphylococcus epidermidis NBRC 12993 assessed as inhibition of bacterial growth after 48 hrs by two fold dilution method; format: functional
Bacillus subtilis [21] = experiment: Antibacterial activity Bacillus subtilis NBRC 3757 assessed as inhibition of bacterial growth after 48 hrs by two fold dilution method; format: functional
Staphylococcus aureus [22] = experiment: Antibacterial activity methicillin-sensitive Staphylococcus aureus ATCC 29213 assessed as inhibition of bacterial growth by CLSI based microbroth dilution assay; format: functional
Staphylococcus aureus [23] = experiment: Antibacterial activity methicillin-resistant Staphylococcus aureus USA300 assessed as inhibition of bacterial growth by CLSI based microbroth dilution assay; format: functional
Bacillus cereus = experiment: Antibacterial activity Bacillus cereus assessed as inhibition of bacterial growth after 18 hrs by broth dilution method; format: functional
[24] = system: Pectobacterium carotovorum; experiment: Antibacterial activity Pectobacterium carotovorum assessed as inhibition of bacterial growth after 18 hrs by broth dilution method; format: functional
Bacillus subtilis [25] = experiment: Antibacterial activity Bacillus subtilis assessed as inhibition of bacterial growth after 18 hrs by broth dilution method; format: functional
Escherichia coli [26] = experiment: Antibacterial activity Escherichia coli assessed as inhibition of bacterial growth after 18 hrs by broth dilution method; format: functional
Staphylococcus aureus [27] = experiment: Antibacterial activity Staphylococcus aureus assessed as inhibition of bacterial growth after 18 hrs by broth dilution method; format: functional
Bacillus subtilis [28] = experiment: Antibacterial activity Bacillus subtilis NCIM 2063 assessed as inhibition of bacterial growth incubated for 24 hrs by serial dilution technique; format: functional
Staphylococcus aureus [29] = experiment: Antibacterial activity Staphylococcus aureus NCIM 2079 assessed as inhibition of bacterial growth incubated for 24 hrs by serial dilution technique; format: functional
Escherichia coli [30] = experiment: Antibacterial activity Escherichia coli NCIM 2918 assessed as inhibition of bacterial growth incubated for 24 hrs by serial dilution technique; format: functional

## O=C(/C=C/c1ccccc1)c1ccc(O)cc1O [2',4'-DIHYDROXYCHALCONE]
Staphylococcus aureus [1]
  MIC: 100 mg/L (≈ 416 µM)
Staphylococcus aureus [2]
  MIC: 50 mg/L (≈ 208 µM)

## Cc1c(Cl)ccc2cc(/C=C/C(=O)c3ccc(Br)cc3)c(Cl)nc12
Streptococcus pyogenes [3]
  MIC: 125 mg/L (≈ 297 µM)
Staphylococcus aureus [4]
  MIC: 125 mg/L (≈ 297 µM)
DNA gyrase
  IC50: 0.332 µM
Escherichia coli [5]
  MIC: 125 mg/L (≈ 297 µM)

## O=C(/C=C/c1ccccc1O)c1cccs1
Staphylococcus aureus [6]
  MIC: 32 mg/L (≈ 139 µM)
Staphylococcus aureus [7]
  MIC: 64 mg/L (≈ 278 µM)

## CC(C)(C)c1cnc(C(=O)/C=C/c2ccccc2Cl)cn1
[8]
  MIC: 3.13 mg/L (≈ 10.4 µM)
Mycobacterium kansasii
  MIC: 25 mg/L (≈ 83.1 µM)
[9]
  MIC: 3.9 mg/L (≈ 13 µM)

## Cc1cc(C(=O)/C=C/c2c(C)cn(-c3ccccc3)c2C)c(C)s1
Staphylococcus aureus [10]
  MIC: 32 mg/L (≈ 95.4 µM)
Salmonella typhimurium
  MIC: 16 mg/L (≈ 47.7 µM)
Escherichia coli [11]
  MIC: 16 mg/L (≈ 47.7 µM)
Streptococcus pyogenes [12]
  MIC: 32 mg/L (≈ 95.4 µM)

## COc1ccc(-c2csc(/N=C/c3cc(/C=C/C(=O)c4ccc(C)cc4)cc(C(C)(C)C)c3O)n2)cc1OC
Staphylococcus aureus [13]
  MIC: 1.4 mg/L (≈ 2.59 µM)
Staphylococcus aureus [14]
  MIC: 5.8 mg/L (≈ 10.7 µM)
Staphylococcus aureus [15]
  MIC: 5.8 mg/L (≈ 10.7 µM)
Staphylococcus aureus [16]
  MIC: 11.6 mg/L (≈ 21.5 µM)

## COc1cc(C(CC(=O)c2ccc(C)cc2)SC(=S)N2CCN(Cc3ccccc3)CC2)cc(OC)c1OC (centres undefined)
Klebsiella pneumoniae [17]
  MIC: 64 mg/L (≈ 113 µM)
DNA
  IC50: 30.97 mg/L (≈ 54.8 µM)
Pseudomonas aeruginosa
  MIC: 32 mg/L (≈ 56.7 µM)

## Nc1ccccc1C(=O)CC(c1ccc(Cl)cc1)S(=O)(=O)c1ccccc1 (centres undefined)
Staphylococcus aureus [18]
  MIC: 1.95 mg/L (≈ 4.88 µM)
Klebsiella pneumoniae [19]
  MIC: 25.5 mg/L (≈ 63.8 µM)

## COc1ccc(C(=O)/C=C/c2ccc(F)cc2)cc1
Bacillus anthracis
  MIC: 12.5 mg/L (≈ 48.8 µM)

## COc1ccc(/C=C/C(=O)c2ccc(O)c(C)c2)cc1Br
Bacillus anthracis
  MIC: 1.56 mg/L (≈ 4.49 µM)

## COc1ccc(C(=O)/C=C/c2ccc(O)cc2)c(O)c1CC=C(C)C
Micrococcus luteus
  MIC: 2 mg/L (≈ 5.91 µM)
[20]
  MIC: 2 mg/L (≈ 5.91 µM)
Bacillus subtilis [21]
  MIC: 2 mg/L (≈ 5.91 µM)

## COc1ccc(C(=O)/C=C/c2ccc(O)cc2)c(O)c1C/C=C(\C)CCC=C(C)C [XANTHOANGELOL F]
Micrococcus luteus
  MIC: 64 mg/L (≈ 157 µM)
[20]
  MIC: 64 mg/L (≈ 157 µM)
Bacillus subtilis [21]
  MIC: 64 mg/L (≈ 157 µM)

## CC(C)=CCC/C(C)=C/Cc1c(O)ccc(C(=O)/C=C/c2ccc(O)cc2)c1O [XANTHOANGELOL]
Micrococcus luteus
  MIC: 4 mg/L (≈ 10.2 µM)
[20]
  MIC: 4 mg/L (≈ 10.2 µM)
Bacillus subtilis [21]
  MIC: 4 mg/L (≈ 10.2 µM)

## CC1CCN(c2ccc(/C=C/C(=O)c3ccc(O)cc3O)cc2)CC1
Bacillus anthracis
  MIC: 1.56 mg/L (≈ 4.62 µM)
Staphylococcus aureus [22]
  MIC: 6.25 mg/L (≈ 18.5 µM)
Staphylococcus aureus [23]
  MIC: 3.12 mg/L (≈ 9.26 µM)

## O=C(/C=C/c1ccc(O)cc1)c1ccc(O)cc1O [ISOLIQUIRITIGENIN]
Bacillus cereus
  MIC: 15.5 mg/L (≈ 60.5 µM)
[24]
  MIC: 15.5 mg/L (≈ 60.5 µM)
Bacillus subtilis [25]
  MIC: 31.3 mg/L (≈ 122 µM)
Escherichia coli [26]
  MIC: 31.3 mg/L (≈ 122 µM)
Staphylococcus aureus [27]
  MIC: 7.8 mg/L (≈ 30.4 µM)

## O=C(/C=C/c1ccc(Br)cc1)c1ccc(Cl)cc1
Bacillus subtilis [28]
  MIC: 1000 mg/L (≈ 3110 µM)
Staphylococcus aureus [29]
  MIC: 1000 mg/L (≈ 3110 µM)
Escherichia coli [30]
  MIC: 1000 mg/L (≈ 3110 µM)

## COc1cc(O)c(C(=O)/C=C/c2ccc(O)cc2)cc1CC=C(C)C
Micrococcus luteus
  MIC: 4 mg/L (≈ 11.8 µM)
[20]
  MIC: 4 mg/L (≈ 11.8 µM)
Bacillus subtilis [21]
  MIC: 4 mg/L (≈ 11.8 µM)
